Biological target: T1, human Farnesoid X Receptor (FXR) ligand binding domain (GST-FXR LBD) (Homo sapiens, UniProt Q96RI1)
T1 construct: purchased Invitrogen
T1 sequence (Q96RI1 193-472 isoform Q96RI1-2): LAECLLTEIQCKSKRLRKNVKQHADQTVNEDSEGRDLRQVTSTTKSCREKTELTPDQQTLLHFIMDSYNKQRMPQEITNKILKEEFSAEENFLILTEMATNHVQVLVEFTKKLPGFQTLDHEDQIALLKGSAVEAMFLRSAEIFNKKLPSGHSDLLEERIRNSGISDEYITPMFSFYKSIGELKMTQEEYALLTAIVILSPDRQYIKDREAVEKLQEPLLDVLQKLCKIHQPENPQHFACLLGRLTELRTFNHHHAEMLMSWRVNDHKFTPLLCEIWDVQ
Experiment: Human GST-FXR LBD co-activator interaction assay (FXR HTRF assay)
Format: biochemical
Settings: GST-FXR LBD interaction with biotin-labeled SRC-1 peptide, FRET, response relative to GW4064, read-out: FXR coactivator interaction assay (HTRF)
Source text: Human GST-FXR LBD Co-Activator Interaction Assay
The FXR HTRF assay is a biochemical assay measuring the interaction between FXR and a coactivator protein (SRC1). The ligand-induced interaction with a coactivator protein is a critical step in transcriptional activation by FXR. Thus, this is an assay designed to measure FXR agonist activity of the test compounds.
Recombinant human Farnesoid X Receptor (FXR) ligand binding domain (amino acids 193-472) fused to glutathione S-transferase (GST) purified protein (GST-FXR LBD) was purchased (Invitrogen). The ligand-dependent interaction between GST-FXR LBD and a peptide derived from Steroid Receptor Coactivator-1 (SRC-1) was monitored by Fluorescence Resonance Energy Transfer (FRET). […] Test compounds (in DMSO solution) and detection reagents (anti-GST-Cryptate labeled antibody and Streptavidin-XL665 conjugate; CisBio) were added in assay buffer containing 50 mM KF. Plates are incubated at room temperature in the dark for 2.5 hrs before reading on an Envision (PerkinElmer) at 665 nm and 590 nm. The HTRF assay results were calculated from the 665 nm/590 nm ratio (ratio=(A665 nm/A590 nm)×10^4) and expressed in Delta F %=(Ratiosample−Rationegative)/Rationegative×100.
A negative control (without Streptavidin-XL665) was run with each assay and represented the background fluorescence. A reference FXR agonist, (E)-3-(2-chloro-4-((3-(2,6-dichlorophenyl)-5-isopropylisoxazol-4-yl)methoxy)styryl)benzoic acid (Compound GW4064), was included in each experiment as positive control. The efficacy of each test compound was compared to that of GW4064. At each concentration, the relative activity of the test compound was expressed as Response %=(Rsample−RDMSO)/(Rpositive−RDMSO), where Rsample is the HTRF response (expressed in Delta F %) for the test compound, Rpositive is the maximal response for GW4064 at saturating concentrations, and RDMSO is the response for DMSO control. The EC50 values were calculated using GraphPad Prism (GraphPad Software) using non-linear regression curve fit (log(agonist) vs. response-variable slope (four parameters)).

| Compound | EC50 |
| --- | --- |
| Cn1nc(C(=O)N(CC(=O)Nc2cc(C(=O)O)ccc2F)Cc2ccccc2)c2c1-c1ccccc1OC2 [Compound 33, 3-(2-(N-benzyl-1-methyl-1,4-dihydrochromeno[4,3-c]pyrazole-3-carboxamido)acetamido)-4-fluorobenzoic acid] | 0.0015 µM |
| Cn1nc(C(=O)N(CC(=O)Nc2cc(C(=O)O)ccc2F)Cc2ccccc2F)c2c1-c1cc(Cl)ccc1OCC2 [Compound 34, 3-(2-(9-chloro-N-(2-fluorobenzyl)-1-methyl-4,5-dihydro-1H-benzo[2,3]oxepino[4,5-c]pyrazole-3-carboxamido)acetamido)-4-fluorobenzoic acid] | 0.0021 µM |
| Cn1nc(C(=O)N(CC(=O)Nc2cccc(C(=O)O)c2)Cc2ccccc2F)c2c1-c1cc(Cl)ccc1OC2 [Compound 35, 3-(2-(8-chloro-N-(2-fluorobenzyl)-1-methyl-1,4-dihydrochromeno[4,3-c]pyrazole-3-carboxamido)acetamido)benzoic Acid] | 0.00077 µM |
| Cn1nc(C(=O)N(CC(=O)Nc2cc(C(=O)O)ccc2F)CC2CCCC2)c2c1-c1cc(Cl)ccc1OC2 [Compound 36, 3-(2-(8-chloro-N-(cyclopentylmethyl)-1-methyl-1,4-dihydrochromeno[4,3-c]pyrazole-3-carboxamido)acetamido)-4-fluorobenzoic Acid] | 0.033 µM |
| Cn1nc(C(=O)N(CC(=O)Nc2cccc(C(=O)O)c2)CC2CCCC2)c2c1-c1cc(Cl)ccc1OC2 [Compound 37, 3-(2-(8-chloro-N-(cyclopentylmethyl)-1-methyl-1,4-dihydrochromeno[4,3-c]pyrazole-3-carboxamido)acetamido)benzoic Acid] | 0.024 µM |
| Cn1nc(C(=O)N(CC(=O)Nc2cc(F)cc(C(=O)O)c2)Cc2ccccc2F)c2c1-c1cc(Cl)ccc1OC2 [Compound 38, 3-(2-(8-chloro-N-(2-fluorobenzyl)-1-methyl-1,4-dihydrochromeno[4,3-c]pyrazole-3-carboxamido)acetamido)-5-fluorobenzoic Acid] | 0.0026 µM |
| Cc1ccc(C(=O)O)cc1NC(=O)CN(Cc1ccccc1F)C(=O)c1nn(C)c2c1COc1ccc(Cl)cc1-2 [Compound 39] | 0.0059 µM |
| CC(CNC(=O)CN(Cc1ccccc1F)C(=O)c1nn(C)c2c1COc1ccc(Cl)cc1-2)C(=O)O (centres unmarked) [Compound 40, 3-(2-(8-chloro-N-(2-fluorobenzyl)-1-methyl-1,4-dihydrochromeno[4,3-c]pyrazole-3-carboxamido)acetamido)-2-methylpropanoic Acid] | 0.0086 µM |
| Cn1nc(C(=O)N(CC(=O)NCC(C)(C)C(=O)O)Cc2ccccc2F)c2c1-c1cc(Cl)ccc1OC2 [Compound 41, 3-(2-(8-chloro-N-(2-fluorobenzyl)-1-methyl-1,4-dihydrochromeno[4,3-c]pyrazole-3-carboxamido)acetamido)-2,2-dimethylpropanoic acid] | 0.004 µM |
| Cn1nc(C(=O)N(CC(=O)NCC2(C(=O)O)CC2)Cc2ccccc2F)c2c1-c1cc(Cl)ccc1OC2 [Compound 42, 1-((2-(8-chloro-N-(2-fluorobenzyl)-1-methyl-1,4-dihydrochromeno[4,3-c]pyrazole-3-carboxamido)acetamido)methyl) cyclopropanecarboxylic acid] | 0.0025 µM |
| Cn1nc(C(=O)N(CCOc2ccc(C(=O)O)cc2F)Cc2ccccc2F)c2c1-c1cc(Cl)ccc1OC2 [Compound 43, 4-(2-(8-chloro-N-(2-fluorobenzyl)-1-methyl-1,4-dihydrochromeno[4,3-c]pyrazole-3-carboxamido)ethoxy)-3-fluorobenzoic Acid] | 0.018 µM |
| Cn1nc(C(=O)N(CCOc2cccc(C(=O)O)c2)Cc2ccccc2F)c2c1-c1cc(Cl)ccc1OC2 [Compound 44, 3-(2-(8-chloro-N-(2-fluorobenzyl)-1-methyl-1,4-dihydrochromeno[4,3-c]pyrazole-3-carboxamido)ethoxy)benzoic acid] | 0.011 µM |
| Cn1nc(C(=O)N(CCOc2ccc(C(=O)O)cc2)Cc2ccccc2F)c2c1-c1cc(Cl)ccc1OC2 [Compound 45, 4-(2-(8-chloro-N-(2-fluorobenzyl)-1-methyl-1,4-dihydrochromeno[4,3-c]pyrazole-3-carboxamido)ethoxy)benzoic acid] | 0.015 µM |
| Cc1cc(C(=O)O)ccc1OCCN(Cc1ccccc1F)C(=O)c1nn(C)c2c1COc1ccc(Cl)cc1-2 [Compound 46] | 0.0032 µM |
| Cc1cc(C(=O)O)cc(C)c1OCCN(Cc1ccccc1F)C(=O)c1nn(C)c2c1COc1ccc(Cl)cc1-2 [Compound 47, 4-(2-(8-chloro-N-(2-fluorobenzyl)-1-methyl-1,4-dihydrochromeno[4,3-c]pyrazole-3-carboxamido)ethoxy)-3,5-dimethylbenzoic acid] | 0.00053 µM |
| Cn1nc(C(=O)N(CCOc2cc(C(=O)O)ccc2F)Cc2ccccc2F)c2c1-c1cc(Cl)ccc1OC2 [Compound 48, 3-(2-(8-chloro-N-(2-fluorobenzyl)-1-methyl-1,4-dihydrochromeno[4,3-c]pyrazole-3-carboxamido)ethoxy)-4-fluorobenzoic acid] | 0.061 µM |
| Cc1cc(C(=O)O)cc(C)c1OCCN(CC1CCCC1)C(=O)c1nn(C)c2c1COc1ccc(Cl)cc1-2 [Compound 49, 4-(2-(8-chloro-N-(cyclopentylmethyl)-1-methyl-1,4-dihydrochromeno[4,3-c]pyrazole-3-carboxamido)ethoxy)-3,5-dimethylbenzoic acid] | 0.017 µM |
| Cn1nc(C(=O)N(CCOc2c(F)cc(C(=O)O)cc2F)Cc2ccccc2F)c2c1-c1cc(Cl)ccc1OC2 [Compound 50, 4-(2-(8-chloro-N-(2-fluorobenzyl)-1-methyl-1,4-dihydrochromeno[4,3-c]pyrazole-3-carboxamido)ethoxy)-3,5-difluorobenzoic acid] | 0.011 µM |
| Cn1nc(C(=O)N(CCOc2ccc(C(=O)O)cc2C(F)(F)F)Cc2ccccc2F)c2c1-c1cc(Cl)ccc1OC2 [Compound 51, 4-(2-(8-chloro-N-(2-fluorobenzyl)-1-methyl-1,4-dihydrochromeno[4,3-c]pyrazole-3-carboxamido)ethoxy)-3-(trifluoromethyl)benzoic acid] | 0.0098 µM |
| Cn1nc(C(=O)N(CCOc2c(F)cc(C(=O)O)cc2F)Cc2ccccc2)c2c1-c1cc(Cl)ccc1OC2 [Compound 52, 4-(2-(N-benzyl-8-chloro-1-methyl-1,4-dihydrochromeno[4,3-c]pyrazole-3-carboxamido)ethoxy)-3,5-difluorobenzoic acid] | 0.0026 µM |
| Cn1nc(C(=O)N(CCOc2c(F)cc(C(=O)O)cc2F)Cc2ccccc2F)c2c1-c1cc(F)ccc1OC2 [Compound 53, 3,5-difluoro-4-(2-(8-fluoro-N-(2-fluorobenzyl)-1-methyl-1,4-dihydrochromeno[4,3-c]pyrazole-3-carboxamido)ethoxy)benzoic acid] | 0.017 µM |
| Cn1nc(C(=O)N(CCOc2c(F)cc(C(=O)O)cc2F)Cc2ccccc2)c2c1-c1cc(F)ccc1OC2 [Compound 54, 4-(2-(N-benzyl-8-fluoro-1-methyl-1,4-dihydrochromeno[4,3-c]pyrazole-3-carboxamido)ethoxy)-3,5-difluorobenzoic acid] | 0.021 µM |
| Cn1nc(C(=O)N(CCOc2ccc(C(=O)O)cc2F)Cc2ccccc2)c2c1-c1cc(Cl)ccc1OC2 [Compound 55, 4-(2-(N-benzyl-8-chloro-1-methyl-1,4-dihydrochromeno[4,3-c]pyrazole-3-carboxamido)ethoxy)-3-fluorobenzoic Acid] | 0.013 µM |
| Cn1nc(C(=O)N(CCOc2ccc(C(=O)O)cc2F)Cc2ccccc2)c2c1-c1cc(F)ccc1OC2 [Compound 56, 4-(2-(N-benzyl-8-fluoro-1-methyl-1,4-dihydrochromeno[4,3-c]pyrazole-3-carboxamido)ethoxy)-3-fluorobenzoic acid] | 0.04 µM |
| Cn1nc(C(=O)N(CCOc2ccc(C(=O)O)cc2F)Cc2ccccc2)c2c1-c1cc(F)c(F)cc1OC2 [Compound 57, 4-(2-(N-benzyl-7,8-difluoro-1-methyl-1,4-dihydrochromeno[4,3-c]pyrazole-3-carboxamido)ethoxy)-3-fluorobenzoic acid] | 0.03 µM |
| Cn1nc(C(=O)N(CCOc2ccc(C(=O)O)cc2F)Cc2cccc(F)c2)c2c1-c1cc(F)ccc1OC2 [Compound 58, 3-fluoro-4-(2-(8-fluoro-N-(3-fluorobenzyl)-1-methyl-1,4-dihydrochromeno[4,3-c]pyrazole-3-carboxamido)ethoxy)benzoic acid] | 0.022 µM |

Reference: patent US11021446B2 (NOVARTIS AG, priority 2013, dated 2021)
